Measured values from patent publication US8163748B2, “s-Triazine compounds, pharmaceutical compositions and method of using the same” (New York University, priority 2007, dated 2012).
In brackets after ≈: the same amount, converted by molar mass.

system: not listed separately; assay: calcein dye leakage; type: biochemical; conditions: ampicillin 70 μM
Source text: FIG. 1 graphically depicts the results of the measurement of the ability of a triazine compound of the invention to induce leakage of calcein, entrapped within the interior of large unilamellar vesicles of model membrane POPG. The extent of leakage of encapsulated calcein was detected by its fluorescence at 515 nm, with 100% leakage calibrated by addition of 0.2% Triton X-100.
The method of preparation of dye-encapsulated vesicles has been reported in detail. Lasch, V.; Weissig, M. Brandl in Liposomes: a Practical Approach Eds.: Taylor, K. M. G.; Craig, D.Q.M. Oxford University Press, Oxford, 2003; pp. 10-12. The results are graphically presented in FIG. 1, which presents the results of calcein leakage induced by 1% Triton, C2 (50 μM), h9 (90 μM) and ampicillin (70 μM). The fraction of leakage was calculated from the fluorescence intensity at 515 nm, with 100% leakage calibrated by addition of 1% Triton X-100.

SMILES	calcein dye leakage (in words)
CC1(C)S[C@@H]2[C@H](NC(=O)[C@H](N)c3ccccc3)C(=O)N2[C@H]1C(=O)O [ampicillin]	neither ampicillin nor compound C2 caused dye leakage

system: Bacillus subtilis (ATCC 6633); assay: broth microdilution antibacterial testing; type: cell-based; conditions: Bacillus subtilis, ATCC6633

SMILES	MIC50 [µM]
CCCCN(CCCC)CCCNc1nc(NC2CCC2)nc(NC23CC4CC(CC(C4)C2)C3)n1 [A2 (Library 5)]	7.9 (≈ 3.82 µg/mL)
CCCCN(CCCC)CCCNc1nc(NC2CCCCCCCCCCC2)nc(NC23CC4CC(CC(C4)C2)C3)n1 [A5 (Library 5)]	15.9 (≈ 9.48 µg/mL)
CCCCN(CCCC)CCCNc1nc(NC2CC3CCC2C3)nc(NC23CC4CC(CC(C4)C2)C3)n1 (stereo not drawn) [A6 (Library 5)]	7.6 (≈ 3.98 µg/mL)
CCCCN(CCCC)CCCNc1nc(NC23CC4CC(CC(C4)C2)C3)nc(NC23CC4CC(CC(C4)C2)C3)n1 [A8 (Library 5)]	39 (≈ 22 µg/mL)
CCCCN(CCCC)CCCNc1nc(NC23CC4CC(CC(C4)C2)C3)nc(N(CCC)CC2CC2)n1 [A10 (Library 5)]	5 (≈ 2.63 µg/mL)
CCN(CC)CCCNc1nc(NCc2ccc3c(c2)OCO3)nc(NC23CC4CC(CC(C4)C2)C3)n1 [C4 (Library 5)]	3.5 (≈ 1.78 µg/mL)
CCCCN(CCCC)CCCNc1nc(NC2CC2)nc(NC23CC4CC(CC(C4)C2)C3)n1 [Compound A1]	16.4 (≈ 7.7 µg/mL)
CCCCN(CCCC)CCCNc1nc(NC23CC4CC(CC(C4)C2)C3)nc(N(CCCC)CCCC)n1 [Compound A9]	4.4 (≈ 2.38 µg/mL)
CCN(CC)CCCNc1nc(NCc2ccccc2)nc(NC23CC4CC(CC(C4)C2)C3)n1 [Compound C1]	10.6 (≈ 4.91 µg/mL)
CN(C)CCNc1nc(NC2CCCCCC2)nc(NC23CC4CC(CC(C4)C2)C3)n1 [b9 (Library 5)]	7 (≈ 2.99 µg/mL)
CCN(CC)CCNc1nc(NC2CCCCCC2)nc(NC23CC4CC(CC(C4)C2)C3)n1 [c9 (Library 5)]	5.6 (≈ 2.55 µg/mL)
CN(C)CCCNc1nc(NC2CCCCCC2)nc(NC23CC4CC(CC(C4)C2)C3)n1 [d9 (Library 5)]	5.7 (≈ 2.52 µg/mL)
NCCNc1nc(NC2CCCCCC2)nc(NC23CC4CC(CC(C4)C2)C3)n1 [e9 (Library 5)]	5.9 (≈ 2.36 µg/mL)
NCCCNc1nc(NC2CCCCCC2)nc(NC23CC4CC(CC(C4)C2)C3)n1 [f9 (Library 5)]	4.7 (≈ 1.94 µg/mL)
CN1CCCC1CCNc1nc(NC2CCCCCC2)nc(NC23CC4CC(CC(C4)C2)C3)n1 (stereo not drawn) [g9 (Library 5)]	5.9 (≈ 2.76 µg/mL)

same assay, conditions: library 5; ring size 12; B. subtilis

SMILES	activity decrease comparing to ring size 7 or 8 compounds [fold]
CCCCN(CCCC)CCCNc1nc(NC2CCCCCCCCCCC2)nc(NC23CC4CC(CC(C4)C2)C3)n1 [A5 (Library 5)]	~8

same assay, conditions: library 5 compound used as control in dye leakage

SMILES	antimicrobial activity (in words)
CN(C)c1nc(NC2CCCCCC2)nc(NC23CC4CC(CC(C4)C2)C3)n1 [h9 (Library 5)]	little antimicrobial activity
